# What was measured:
# CDK9/cyclin T1 = CDK9/cyclin T1 (Homo sapiens, UniProt P50750); assay: Inhibition of recombinant human full length N-terminal GST/His6-tagged CDK9 (M1 to F372 residues)/N-terminal His6-tagged CyclinT1 (M1 to K726 residues) expressed in Sf9 insect cells
# CDK6/cyclin D1 = CDK6/cyclin D1 (Homo sapiens, UniProt Q00534); assay: Inhibition of recombinant human full length N-terminal GST-tagged CDK6 (M1 to A326 residues)/CyclinD1 (Q4 to I295 residues) expressed in Sf9 insect cells
# CDK6/cyclin D1, sequence (P24385 whole entry, the tested form may be a part): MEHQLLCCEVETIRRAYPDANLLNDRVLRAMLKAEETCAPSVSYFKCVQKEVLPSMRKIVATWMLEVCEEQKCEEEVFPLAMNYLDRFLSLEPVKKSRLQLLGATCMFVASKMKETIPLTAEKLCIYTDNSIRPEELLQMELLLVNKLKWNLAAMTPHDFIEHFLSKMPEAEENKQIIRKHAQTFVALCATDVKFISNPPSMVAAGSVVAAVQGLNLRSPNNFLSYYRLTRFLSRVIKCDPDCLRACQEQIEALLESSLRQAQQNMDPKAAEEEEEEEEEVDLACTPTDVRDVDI
# CDK6/cyclin D1, sequence (Q00534 whole entry, the tested form may be a part): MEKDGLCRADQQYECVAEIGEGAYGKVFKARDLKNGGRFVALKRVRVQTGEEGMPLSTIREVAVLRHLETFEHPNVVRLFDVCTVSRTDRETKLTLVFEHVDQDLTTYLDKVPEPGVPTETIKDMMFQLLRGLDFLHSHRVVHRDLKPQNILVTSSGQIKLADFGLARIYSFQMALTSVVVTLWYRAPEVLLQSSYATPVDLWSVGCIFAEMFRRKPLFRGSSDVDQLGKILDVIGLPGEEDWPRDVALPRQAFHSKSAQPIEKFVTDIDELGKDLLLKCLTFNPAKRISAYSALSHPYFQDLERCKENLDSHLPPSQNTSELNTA
# CDK7/Cyclin H/MNAT1 = CDK7/Cyclin H/MNAT1 (Homo sapiens, UniProt P50613); assay: Inhibition of recombinant human full length N-terminal GST/His6-tagged CDK7 (M1 to F346 residues)/N-terminal His6-tagged CyclinH (M1 to L323 residues)/N-terminal His6-tagged MAT1 (M1 to S306 residues) expressed in Sf9 insect cells
# CDK7/Cyclin H/MNAT1, sequence (P51946 whole entry, the tested form may be a part): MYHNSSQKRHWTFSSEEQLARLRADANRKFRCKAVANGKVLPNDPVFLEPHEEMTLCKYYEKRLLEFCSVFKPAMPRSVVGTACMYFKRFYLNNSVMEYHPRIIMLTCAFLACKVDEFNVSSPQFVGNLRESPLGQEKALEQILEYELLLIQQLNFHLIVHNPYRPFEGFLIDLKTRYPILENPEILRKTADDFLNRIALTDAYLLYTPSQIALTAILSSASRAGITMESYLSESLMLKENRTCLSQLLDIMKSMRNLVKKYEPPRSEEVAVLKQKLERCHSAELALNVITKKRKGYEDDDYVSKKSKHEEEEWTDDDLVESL
# CDK7/Cyclin H/MNAT1, sequence (P50613 whole entry, the tested form may be a part): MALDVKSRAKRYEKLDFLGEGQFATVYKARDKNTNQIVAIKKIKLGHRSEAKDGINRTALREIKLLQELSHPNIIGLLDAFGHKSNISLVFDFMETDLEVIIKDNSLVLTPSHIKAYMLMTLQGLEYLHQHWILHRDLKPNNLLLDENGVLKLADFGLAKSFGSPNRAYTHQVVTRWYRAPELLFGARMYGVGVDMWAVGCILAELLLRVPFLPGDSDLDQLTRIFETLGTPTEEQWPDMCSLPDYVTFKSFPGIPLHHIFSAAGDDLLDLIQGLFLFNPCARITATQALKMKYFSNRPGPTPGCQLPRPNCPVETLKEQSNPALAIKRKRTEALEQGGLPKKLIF
# CDK7/Cyclin H/MNAT1, sequence (P51948 whole entry, further chain, the tested form may be a part): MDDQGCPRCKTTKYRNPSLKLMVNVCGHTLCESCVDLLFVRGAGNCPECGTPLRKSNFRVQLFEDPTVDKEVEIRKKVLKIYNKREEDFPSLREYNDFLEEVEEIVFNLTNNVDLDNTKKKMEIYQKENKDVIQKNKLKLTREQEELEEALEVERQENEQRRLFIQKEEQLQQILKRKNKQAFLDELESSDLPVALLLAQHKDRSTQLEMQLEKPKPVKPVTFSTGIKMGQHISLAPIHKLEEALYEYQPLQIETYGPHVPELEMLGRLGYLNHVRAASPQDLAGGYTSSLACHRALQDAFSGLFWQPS
# [1] = biological target: Cyclin-dependent kinase 4/cyclin D1 (Homo sapiens, UniProt P11802); assay: Inhibition of recombinant human N-terminal GST-tagged CDK4 (S4 to E303 residues)/CyclinD1 (Q4 to I295 residues) expressed in Sf9 insect cells
# Cyclin-dependent kinase 4/cyclin D1, sequence (P11802 whole entry, the tested form may be a part): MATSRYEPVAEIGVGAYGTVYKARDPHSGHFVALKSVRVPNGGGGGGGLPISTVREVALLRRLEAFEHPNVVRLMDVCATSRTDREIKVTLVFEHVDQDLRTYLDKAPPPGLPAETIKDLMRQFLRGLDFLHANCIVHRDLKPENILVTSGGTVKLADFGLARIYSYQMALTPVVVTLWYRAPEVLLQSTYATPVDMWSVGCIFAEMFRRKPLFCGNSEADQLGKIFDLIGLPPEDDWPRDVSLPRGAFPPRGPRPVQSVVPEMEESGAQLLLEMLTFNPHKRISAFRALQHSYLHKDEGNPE
# Cyclin-dependent kinase 4/cyclin D1, sequence (P24385 whole entry, further chain, the tested form may be a part): as the sequence (P24385 whole entry, the tested form may be a part) above
# Human alphaherpesvirus 1 = assay: Antiviral activity against HSV1 MP infected in African green monkey Vero cells assessed as inhibition of plaque formation after 48 hrs; format: functional; settings: Human alphaherpesvirus 1, MP, read-out: ED50 (the source's name)
# Escherichia coli = assay: Bactericidal activity against Escherichia coli NCTC 10418 by two-fold serial dilution assay; format: functional
# Pseudomonas aeruginosa [2] = assay: Antimicrobial activity against Pseudomonas aeruginosa ATCC 9027 by two-fold serial dilution assay; format: functional
# Pseudomonas aeruginosa [3] = assay: Bactericidal activity against Pseudomonas aeruginosa ATCC 9027 by two-fold serial dilution assay; format: functional
# Staphylococcus aureus = assay: Bactericidal activity against Staphylococcus aureus ATCC 6538 by two-fold serial dilution assay; format: functional
# Semliki Forest virus [4] = assay: Antiviral activity against Semliki forest virus infected in Swiss Webster mouse assessed as mouse survival at 100 mg/kg, ip measured after 18 to 24 hrs; format: functional
# Semliki Forest virus [5] = assay: Antiviral activity against Semliki forest virus infected in Swiss Webster mouse assessed as mean survival time at 100 mg/kg, ip; format: functional
# Candida albicans [6] = assay: Fungicidal activity against Candida albicans ATCC 10231 by two-fold serial dilution assay; format: functional
# Candida albicans [7] = assay: Antimicrobial activity against Candida albicans ATCC 10231 by two-fold serial dilution assay; format: functional
# K562 [8] = assay: Growth inhibition of human K562 cells after 72 hrs by Calcein AM dye based fluorescence assay; format: functional; settings: K562, 72 h
# MCF7 = assay: Growth inhibition of human MCF7 cells after 72 hrs by Calcein AM dye based fluorescence assay; format: functional; settings: MCF7, 72 h
# [9] = biological target: Cyclin-dependent kinase 2/cyclin E1 (Homo sapiens, UniProt P24941); assay: Inhibition of recombinant human full length N-terminal GST-tagged CDK2 (M1 to L298 residues)/CyclinE1 (M1 to A395 residues) expressed in baculovirus infected Sf9 insect cells using histone H1 as substrate by [gamma33P]ATP-based assay
# Nicotiana tabacum [10] = assay: Growth inhibition of cytokinin-requiring tobacco cells; format: functional; settings: for TGI: read-out: GI100
# Nicotiana tabacum [11] = assay: Toxicity in Nicotiana tabacum; format: organism-based
# Nicotiana tabacum [12] = assay: Anticytokinin activity against Nicotiana tabacum; format: functional, organism-based
# Nicotiana tabacum [13] = assay: Growth inhibition of cytokinin-autonomous tobacco cells; format: functional; settings: for TGI: read-out: GI100
# Semliki Forest virus [14] = assay: Antiviral activity against Semliki forest virus infected in Swiss Webster mouse assessed as mouse survival at 50 mg/kg, ip measured after 18 to 24 hrs; format: functional
# Semliki Forest virus [15] = assay: Antiviral activity against Semliki forest virus infected in Swiss Webster mouse assessed as mouse survival at 200 mg/kg, ip measured after 18 to 24 hrs; format: functional
# Semliki Forest virus [16] = assay: Antiviral activity against Semliki forest virus infected in Swiss Webster mouse assessed as mean survival time at 30 mg/kg, ip; format: functional
# Semliki Forest virus [17] = assay: Antiviral activity against Semliki forest virus infected in Swiss Webster mouse assessed as mean survival time at 50 mg/kg, ip; format: functional
# Semliki Forest virus [18] = assay: Antiviral activity against Semliki forest virus infected in Swiss Webster mouse assessed as mouse survival at 30 mg/kg, ip measured after 18 to 24 hrs; format: functional
# Semliki Forest virus [19] = assay: Antiviral activity against Semliki forest virus infected in Swiss Webster mouse assessed as mean survival time at 200 mg/kg, ip; format: functional
# Semliki Forest virus [20] = assay: Antiviral activity against Semliki forest virus infected in Swiss Webster mouse assessed as mouse survival at 10 mg/kg, ip measured after 18 to 24 hrs; format: functional
# Semliki Forest virus [21] = assay: Antiviral activity against Semliki forest virus infected in Swiss Webster mouse assessed as mean survival time at 10 mg/kg, ip; format: functional
# [22] = biological target: Cyclin-dependent kinase 1/cyclin B1 (Homo sapiens, UniProt P06493); assay: Inhibition of CDK1/CyclinB (unknown origin); format: protein-complex assay
# Cyclin-dependent kinase 1/cyclin B1, sequence (P06493 whole entry): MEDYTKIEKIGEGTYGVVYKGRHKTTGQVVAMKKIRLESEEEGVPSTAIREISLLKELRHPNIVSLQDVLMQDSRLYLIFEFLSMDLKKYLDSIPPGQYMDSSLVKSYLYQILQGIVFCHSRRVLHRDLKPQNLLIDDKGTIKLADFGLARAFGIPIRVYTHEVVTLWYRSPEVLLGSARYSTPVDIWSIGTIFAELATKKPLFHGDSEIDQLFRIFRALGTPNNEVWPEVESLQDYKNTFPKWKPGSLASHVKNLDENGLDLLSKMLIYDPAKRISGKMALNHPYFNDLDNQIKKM
# Cyclin-dependent kinase 1/cyclin B1, sequence (P14635 whole entry, further chain): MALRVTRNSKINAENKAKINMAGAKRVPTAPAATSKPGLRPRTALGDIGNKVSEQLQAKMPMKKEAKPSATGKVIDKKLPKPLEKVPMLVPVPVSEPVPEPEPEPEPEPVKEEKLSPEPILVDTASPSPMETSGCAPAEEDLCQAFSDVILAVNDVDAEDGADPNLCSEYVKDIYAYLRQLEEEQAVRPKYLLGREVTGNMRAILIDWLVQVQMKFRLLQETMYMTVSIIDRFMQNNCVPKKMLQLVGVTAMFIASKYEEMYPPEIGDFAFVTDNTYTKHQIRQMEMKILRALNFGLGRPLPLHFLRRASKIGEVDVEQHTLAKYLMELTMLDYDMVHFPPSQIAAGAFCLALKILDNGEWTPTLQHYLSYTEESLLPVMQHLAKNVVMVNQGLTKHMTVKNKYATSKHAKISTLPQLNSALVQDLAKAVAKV
# K562 [23] = assay: Antiproliferative activity against human K562 cells; format: functional, cell-based
# CDK9/cyclin T1, sequence (O60563 whole entry, the tested form may be a part): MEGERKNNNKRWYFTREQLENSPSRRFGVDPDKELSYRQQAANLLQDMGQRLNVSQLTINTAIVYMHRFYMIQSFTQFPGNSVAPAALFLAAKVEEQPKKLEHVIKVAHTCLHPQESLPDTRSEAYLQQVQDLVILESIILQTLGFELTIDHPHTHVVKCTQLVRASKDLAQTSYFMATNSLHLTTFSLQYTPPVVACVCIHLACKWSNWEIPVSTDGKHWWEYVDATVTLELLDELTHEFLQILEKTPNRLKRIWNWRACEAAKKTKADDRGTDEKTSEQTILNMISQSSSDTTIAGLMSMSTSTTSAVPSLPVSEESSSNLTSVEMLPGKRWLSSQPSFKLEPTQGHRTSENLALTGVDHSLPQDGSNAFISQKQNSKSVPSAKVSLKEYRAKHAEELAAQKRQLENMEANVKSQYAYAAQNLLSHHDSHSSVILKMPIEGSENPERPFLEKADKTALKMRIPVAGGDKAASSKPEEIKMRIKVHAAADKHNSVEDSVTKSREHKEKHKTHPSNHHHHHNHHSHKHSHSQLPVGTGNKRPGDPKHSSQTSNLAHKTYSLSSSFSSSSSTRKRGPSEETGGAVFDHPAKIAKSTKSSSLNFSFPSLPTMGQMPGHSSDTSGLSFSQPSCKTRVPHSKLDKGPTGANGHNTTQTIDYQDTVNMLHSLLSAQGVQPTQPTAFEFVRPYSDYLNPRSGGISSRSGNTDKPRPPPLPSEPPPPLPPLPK
# CDK9/cyclin T1, sequence (P50750 whole entry, the tested form may be a part): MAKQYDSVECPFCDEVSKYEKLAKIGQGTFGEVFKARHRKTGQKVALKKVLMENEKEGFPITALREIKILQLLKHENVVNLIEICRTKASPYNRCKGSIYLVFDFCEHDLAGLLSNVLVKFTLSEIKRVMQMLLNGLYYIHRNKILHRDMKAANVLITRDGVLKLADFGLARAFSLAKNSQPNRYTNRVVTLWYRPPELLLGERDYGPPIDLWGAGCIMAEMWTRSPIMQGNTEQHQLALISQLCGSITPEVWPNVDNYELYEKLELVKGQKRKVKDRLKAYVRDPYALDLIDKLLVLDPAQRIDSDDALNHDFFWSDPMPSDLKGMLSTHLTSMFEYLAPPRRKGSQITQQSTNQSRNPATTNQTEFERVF
smiles,measurement,setting,value
CC(C)c1n[nH]c2c(NCc3ccccc3)nc(NC3CCCCC3N)nc12 (stereo not given),IC50,CDK9/cyclin T1,> 1000 nM
same,IC50,CDK6/cyclin D1,> 100000 nM
same,IC50,CDK7/Cyclin H/MNAT1,> 100000 nM
CC(C)c1n[nH]c2c(NCc3ccccc3)nc(NC3CCC(N)CC3)nc12 (stereo not given),IC50,[1],6600 nM
same,IC50,CDK7/Cyclin H/MNAT1,> 100000 nM
CCCCn1cnc2c(C)nn([C@@H]3O[C@H](CO)[C@@H](O)[C@H]3O)c2c1=O,EC50,Human alphaherpesvirus 1,152000 nM
CC1(C)S[C@@H]2[C@H](NC(=O)[C@H](N)c3ccccc3)C(=O)N2[C@H]1C(=O)O [AMPICILLIN],MBC,Escherichia coli,31.2 µg/mL
same,MIC,Pseudomonas aeruginosa [2],250 µg/mL
same,MBC,Pseudomonas aeruginosa [3],500 µg/mL
same,MBC,Staphylococcus aureus,15.6 µg/mL
Nc1nc(=O)c2sc(=O)n([C@@H]3O[C@H](CO)[C@@H](O)[C@H]3O)c2[nH]1 [ISATORIBINE],survival at 100 mg/kg,Semliki Forest virus [4],92%
same,MST,Semliki Forest virus [5],8 days
Clc1ccccc1C(c1ccccc1)(c1ccccc1)n1ccnc1 [CLOTRIMAZOLE],MFC,Candida albicans [6],15.6 µg/mL
same,MIC,Candida albicans [7],7.81 µg/mL
CC[C@H](CO)Nc1nc(NCc2ccccc2N)c2[nH]nc(C(C)C)c2n1,GI50,K562 [8],9200 nM
same,GI50,MCF7,2800 nM
same,IC50,[9],10.5 nM
Cc1nn([C@@H]2O[C@H](CO)[C@@H](O)[C@H]2O)c2c(=O)n(-c3ccc(Cl)cc3)cnc12,EC50,Human alphaherpesvirus 1,50000 nM
CCCCCNc1ncnc2c(C)n[nH]c12,GI50,Nicotiana tabacum [10],20 nM
same,TGI,Nicotiana tabacum [10],50 nM
same,IC50,Nicotiana tabacum [11],200 nM
same,IC50,Nicotiana tabacum [12],30 nM
same,GI50,Nicotiana tabacum [13],25 nM
same,TGI,Nicotiana tabacum [13],50 nM
O=c1[nH]c(=O)n([C@H]2C[C@H](O)[C@@H](CO)O2)cc1I [IDOXURIDINE],EC50,Human alphaherpesvirus 1,1200 nM
Cn1nc([C@@H]2O[C@H](CO)[C@@H](O)[C@H]2O)c2nc(N)[nH]c(=O)c21,survival at 50 mg/kg,Semliki Forest virus [14],67%
same,survival at 100 mg/kg,Semliki Forest virus [4],67%
same,survival at 200 mg/kg,Semliki Forest virus [15],58%
same,MST,Semliki Forest virus [16],9.2 days
same,MST,Semliki Forest virus [17],6 days
same,survival at 30 mg/kg,Semliki Forest virus [18],50%
same,MST,Semliki Forest virus [5],8 days
same,MST,Semliki Forest virus [19],7 days
same,survival at 10 mg/kg,Semliki Forest virus [20],8%
same,MST,Semliki Forest virus [21],9.6 days
CC(C)c1n[nH]c2c(NCc3ccccc3O)ncnc12,IC50,[22],440 nM
same,IC50,K562 [23],54000 nM
COc1ccc(Cn2cnc3c(C)nn([C@@H]4O[C@H](CO)[C@@H](O)[C@H]4O)c3c2=O)cc1,EC50,Human alphaherpesvirus 1,49500 nM
Cc1n[nH]c2c(NCCC(C)C)ncnc12,IC50,Nicotiana tabacum [11],730 nM
same,IC50,Nicotiana tabacum [12],100 nM
Cn1cnc2c(NCc3ccccc3)nc(NCCO)nc21 [OLOMOUCINE],IC50,K562 [23],163000 nM
CCCCCCNc1ncnc2c(C)n[nH]c12,IC50,Nicotiana tabacum [11],500 nM
same,IC50,Nicotiana tabacum [12],30 nM
CC(C)c1n[nH]c2c(NCc3ccccc3N)nc(NC[C@@H](C)O)nc12,GI50,K562 [8],15500 nM
same,GI50,MCF7,4400 nM
same,IC50,[9],16.5 nM
Cc1n[nH]c2c(NCc3ccccc3)ncnc12,GI50,Nicotiana tabacum [10],40 nM
same,TGI,Nicotiana tabacum [10],150 nM
same,GI50,Nicotiana tabacum [13],30 nM
same,TGI,Nicotiana tabacum [13],100 nM
CC[C@@H](CO)Nc1nc(NCc2ccccc2N)c2[nH]nc(C(C)C)c2n1,GI50,K562 [8],22300 nM
same,GI50,MCF7,10900 nM
same,IC50,[9],15.3 nM
O=c1[nH]cnc2c(-c3ccc(Br)cc3)n[nH]c12,MFC,Candida albicans [6],250 µg/mL
same,MIC,Candida albicans [7],250 µg/mL

# — ChEMBL document CHEMBL4184194, “An appraisal on synthetic and pharmaceutical perspectives of pyrazolo[4,3-d]pyrimidine scaffold” (Bioorg Med Chem, 2018)
